In patent EP1724268A1, “COMPOUND HAVING TGF-BETA INHIBITORY ACTIVITY AND PHARMACEUTICAL COMPOSITION CONTAINING SAME” (KIRIN BEER KABUSHIKI KAISHA, priority 2004, dated 2005) one finds inhibition data, which are given here for 44 compounds.

The assay has as its system TGFβ signal. As to the kind of experiment: TGFβ signal inhibitory activity, (SBE)4-Luc reporter in A549 cells (Test Examples 1A and 1B). The format is cell-based, human. Particulars: Homo sapiens. The method, boiled down:
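Compounds at 3 µM and 10 µM (some 1 µM) were added with 2 ng/ml TGFβ-1 to A549 cells stably expressing an SBE-driven luciferase, then cultured 4 hr. Chemiluminescent luciferase signal gave % inhibition versus TGFβ-alone and no-TGFβ controls.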

Where [1] appears, read: A549, test compound 3 µM, Reference Examples, Table 1B, read-out: TGFβ inhibition rate, %.
The mark [2] stands for this setting: A549, test compound 10 µM, Reference Examples, Table 1B, read-out: TGFβ inhibition rate, %.
Setting [3] is: A549, 3 µM, compounds of Reference Examples (Test Example 1B), read-out: TGFβ inhibition rate, %.
The mark [4] stands for this setting: A549, 10 µM, compounds of Reference Examples (Test Example 1B), read-out: TGFβ inhibition rate, %.

SMILES strings stand for the structures. Where two headings read alike, the source gives them in different places.

Turning to `COc1cc2c(Oc3ccc(C)cc3C(=O)c3ccccc3)ccnc2cc1OCCCN1CCC(CO)CC1` [r135], under setting [1], the inhibition (in general, the change of the read-out against control, counted positive when it falls) at 3 µM came out at 100%. The inhibition at 10 µM under setting [2] came out at 100%.
`COc1cc2c(Oc3ccc(C)cc3C(=O)c3ccccc3)ccnc2cc1OCCCN1CCNCC1` [r137]: the inhibition at 3 µM under setting [1] amounted to 100%. Further, under setting [2], the inhibition at 10 µM is 100%.
On to `COc1cc2c(Oc3ccc(C)cc3C(=O)c3ccccc3)ccnc2cc1OCCCN1CCN(C)CC1` [r138], for which, under setting [1], the inhibition at 3 µM came to 96%. Moreover, the inhibition at 10 µM under setting [2] was 100%.
In the same order, the values of `COc1cc2c(Oc3ccc(C)cc3C(=O)c3ccccc3)ccnc2cc1OCCCN1CCOCC1` [r139] are 99% and 100%.
For `COc1cc2c(Oc3ccc(C)cc3C(=O)c3ccccc3)ccnc2cc1OCCCn1ccnc1` [r140], in that order: 85% and 100%.
In the same order, the values of `COc1cc2c(Oc3ccc(C)cc3C(=O)c3ccccc3)ccnc2cc1OCCCCNCCO` [r142] are 100% and 100%.
Take `CCN(CC)CCCCOc1cc2nccc(Oc3ccc(C)cc3C(=O)c3ccccc3)c2cc1OC` [r143]: under setting [1], the inhibition at 3 µM is 97%. Also, under setting [2], the inhibition at 10 µM worked out at 100%.
For `CCN(CC)CC(O)COc1cc2nccc(Oc3ccc(C)cc3C(=O)c3ccccc3)c2cc1OC` (stereo not drawn) [r153], under setting [1], the inhibition at 3 µM stood at 100%. The inhibition at 10 µM under setting [2] was determined as 100%.
Regarding `COc1cc2c(Oc3ccc(C)cc3C(=O)c3ccccc3)ccnc2cc1OCC(O)CN1CCC(CO)CC1` (stereo not drawn) [r154], the inhibition at 3 µM under setting [1] turned out to be 99%. The inhibition at 10 µM under setting [2] turned out to be 100%.
Regarding `COc1cc2c(Oc3ccc(C)cc3C(=O)c3ccccc3)ccnc2cc1OCC(O)CN1CCC(N2CCCC2)CC1` (stereo not drawn) [r155], under setting [1], the inhibition at 3 µM came out at 100%. Under setting [2], the inhibition at 10 µM was determined as 100%.
Take `COc1cc2c(Oc3ccc(C)cc3C(=O)c3ccccc3)ccnc2cc1OCC(O)Cn1ccnc1` (stereo not drawn) [r160]: the inhibition at 3 µM under setting [1] is 98%. The inhibition at 10 µM under setting [2] was 100%.
For `COc1cc2ncnc(Oc3ccc(C)cc3C(=O)c3ccccc3)c2cc1OC` [r161], in that order: 25% and 83%.
In the same order, the values of `COc1ccc(Oc2ncnc3cc(OC)c(OC)cc23)c(C(C)=O)c1` [r162] are 5% and 54%.
For `COc1cc2nccc(Oc3ccc(C)cc3C(O)CCCCCCCCCO)c2cc1OC` (stereo not drawn) [r165], the inhibition at 3 µM under setting [3] was 38%. Besides, the inhibition at 10 µM under setting [4] was determined as 89%.
For the compound `COc1ccc(Oc2ccnc3cc(OC)c(OC)cc23)c(C(O)Cc2ccccn2)c1` (stereo not drawn) [r166], under setting [3], the inhibition at 3 µM is 24%. Further, the inhibition at 10 µM under setting [4] is 67%.
For `COc1cc2nccc(Oc3ccc(C)cc3-c3ccccn3)c2cc1OC` [r167], in that order: 98% and 100%.
In the same order, the values of `COc1cc2nccc(Oc3ccc(C)cc3-c3cccnc3)c2cc1OC` [r168] are 22% and 74%.
On to `COc1cc2nccc(Oc3cc(C)c(C)cc3-c3cccnc3)c2cc1OC` [r170], for which, under setting [3], the inhibition at 3 µM worked out at 76%. Besides, under setting [4], the inhibition at 10 µM turned out to be 100%.
In the same order, the values of `COc1cc2nccc(Oc3ccc(-n4ccnc4)cc3I)c2cc1OC` [r171] are 11% and 76%.
In the same order, the values of `CCc1ccc(Oc2ccnc3cc(OC)c(OC)cc23)c(C(C)=O)c1` [r172] are 82% and 99%.
In the same order, the values of `CCCc1ccc(Oc2ccnc3cc(OC)c(OC)cc23)c(C(C)=O)c1` [r173] are 83% and 100%.
For `CCCCc1ccc(Oc2ccnc3cc(OC)c(OC)cc23)c(C(C)=O)c1` [r174], the inhibition at 3 µM under setting [3] is 57%. For the same compound, the inhibition at 10 µM under setting [4] was determined as 96%.
For `COc1cc2nccc(Oc3ccc(O)cc3C(C)=O)c2cc1OC` [r176], in that order: 32% and 67%.
Take `COc1ccc(Oc2ccnc3cc(OC)c(OC)cc23)c(C(C)=O)c1` [r177]: the inhibition at 3 µM (A549, read-out: TGFβ inhibition rate, %) was determined as 94%.
Regarding `CCCCOc1ccc(Oc2ccnc3cc(OC)c(OC)cc23)c(C(C)=O)c1` [r180], the inhibition at 3 µM under setting [3] was -2%. The inhibition at 10 µM under setting [4] was 55%.
For `COc1cc2nccc(Oc3cc(Cl)ccc3C(C)=O)c2cc1OC` [r181], in that order: 42% and 82%.
For `COc1cc2nccc(Oc3cc4c(cc3C(C)=O)CCC4)c2cc1OC` [r182], in that order: 57% and 96%.
In the same order, the values of `COc1cc2nccc(Oc3cc(C)c(C(C)C)cc3C(C)=O)c2cc1OC` [r183] are 82% and 100%.
As to `COC(=O)CCCCCCC(=O)c1cc(C)ccc1Oc1ccnc2cc(OC)c(OC)cc12` [r187], the inhibition at 3 µM under setting [3] amounted to 35%. Moreover, the inhibition at 10 µM under setting [4] amounted to 91%.
In the same order, the values of `COc1cc2nccc(Oc3ccc(C)cc3C(=O)c3ccc(O)cc3)c2cc1OC` [r188] are 80% and 100%.
As to `COc1ccc(Oc2ccnc3cc(OC)c(OC)cc23)c(C(=O)c2nccs2)c1` [r192], the inhibition at 3 µM under setting [3] is 79%. In addition, the inhibition at 10 µM under setting [4] was 99%.
In the same order, the values of `CO/N=C(\C)c1cc(C)c(C)cc1Oc1ccnc2cc(OC)c(OC)cc12` [r196] are 41% and 83%.
In the same order, the values of `COc1cc2nccc(Oc3cc(C)c(C)cc3/C(C)=N/OCc3ccccc3)c2cc1OC` [r198] are 32% and 80%.
For `COc1cc2nccc(Oc3cc(C)c(C)cc3/C(C)=N/Oc3ccccc3)c2cc1OC` [r199], in that order: 14% and 59%.
With `CCCOC(=O)c1cc2ccccc2cc1Oc1ccnc2cc(OC)c(OC)cc12` [r201], the inhibition at 3 µM under setting [3] came out at 79%. Moreover, the inhibition at 10 µM under setting [4] came out at 100%.
For `COc1cc2nccc(Oc3cccnc3C)c2cc1OC` [r202], in that order: 20% and 54%.
In the same order, the values of `COc1cc2nccc(Oc3cccnc3Br)c2cc1OC` [r203] are 19% and 52%.
With `COc1cc2nccc(Oc3ccc(F)nc3)c2cc1OC` [r205], under setting [3], the inhibition at 3 µM was found to be 26%. In addition, the inhibition at 10 µM under setting [4] was 57%.
In the same order, the values of `COc1cc2nccc(Oc3ccc(Cl)nc3)c2cc1OC` [r206] are 69% and 94%.
As for `COc1cc2nccc(Oc3cncc(Cl)c3)c2cc1OC` [r208], under setting [3], the inhibition at 3 µM is 18%. For the same compound, under setting [4], the inhibition at 10 µM came to 73%.
In the same order, the values of `COc1cc2nccc(Oc3ccc(C)nc3[N+](=O)[O-])c2cc1OC` [r210] are 45% and 80%.
For `COc1cc2nccc(Oc3ccc(C)nc3C#C[Si](C)(C)C)c2cc1OC` [r212], in that order: 94% and 100%.
In the same order, the values of `COc1cc2nccc(Oc3ccc(C)nc3Cc3ccccc3)c2cc1OC` [r214] are 99% and 100%.
As to `COc1cc2nccc(Oc3ccc(C)nc3Cc3cccc(C)n3)c2cc1OC` [r215], under setting [3], the inhibition at 3 µM is 72%. Also, the inhibition at 10 µM under setting [4] was 99%.
